Data: patent publication US10369131B2, “Ultrapure tetrahydrocannabinol-11-oic acids” (Corbus Pharmaceuticals, Inc., priority 2013, dated 2019)

How the values were obtained:
[1] = target: T1, hCB2 receptor (Homo sapiens, UniProt P34972)
Description: (§1) When the CB1 or CB2 receptor is activated by an agonist, the affinity of the G protein alpha subunit increases with respect to GTP vs. GDP. As a consequence, GDP is displaced from the G protein and GTP or GTPγS binds. If a radioactive label, such as [^35S], is attached to the GTPγS molecule, then the formation of the G protein/[^35S]GTPγS complex can be directly measured using liquid scintillation spectrophotometry.
(§2) The CB1 and CB2 receptor assays involve membrane preparations purchased from Perkin Elmer (Waltham, Mass.) isolated from a HEK-293 expression system. G-protein coupled signal transduction (GTP-γ-[35S]) assays of test compounds were conducted in an incubation mixture consisting of a test compound (250 nM-1 mM), GDP (20 μM), GTP-γ-[35S] (100 pM), and the hCB1 and hCB2 membrane preparations (0.4 pM) in a total volume of 0.4 mL of assay buffer (50 mM TRIS-HCl, pH 7.4, 1 mM EDTA, 100 mM NaCl, 5 mM MgCl2, 0.5% (w/v) BSA). Nonspecific binding was determined in the presence of 100 μM unlabeled GTP-γ-S, and basal binding was determined in the absence of drug. Duplicate samples were incubated for 1 h at 30° C., and the bound complex was filtered from the reaction mixture as described previously and counted in a liquid scintillation counter. Specific binding was calculated by subtracting nonspecific binding from total binding and dividing by the total basal binding minus nonspecific binding. Data were plotted and analyzed with GraphPad Prism (GraphPad Software, Inc., San Diego, Calif.).

[2] = tested on: female CD-1 mice; assay: Ring immobility (catalepsy) test
Procedure: The cataleptic response was measured using the ring test described by Pertwee (Pertwee R G, The Ring Test. A Quantitative Method of Assessing the Cataleptic Effect of Cannabis in Mice, Br. J. Pharmacol. 46:753-763 (1972)). Mice were placed on a horizontal wire ring 5.5 cm in diameter attached to a 16 cm vertical rod. The hind paws and fore paws were placed at opposite sides of the ring. The ambient temperature was maintained at 30° C. and the environment was free of auditory stimuli and bright lights. The response was calculated as the fraction of time the mouse was immobile over a five (5) minute test period.
A dose response was conducted for ultrapure AJA to oral doses of 0.05 to 56 mg/kg.
Compounds were administered at a volume of […] via oral gavage.
Female CD-1 mice (20-25 g), obtained from Charles River (Raleigh, N.C.), were used for assessment in hot plate nociception, rectal temperature, and ring immobility assays. Separate mice were used for testing each dose of each compound in this battery of procedures. The mice had free access to food and water when in their home cages. All animals were kept in a temperature-controlled (20-22° C.) environment with a 12-hour light-dark cycle (lights on at 7 a.m.).
Each mouse was tested in a battery of three tests, in which cannabinoid CB1 agonists produce in vivo effects in mice (Martin et al., 1991): antinociception (hot plate assay), decreased rectal temperature and ring immobility. Prior to administration of the test compound, rectal temperature and baseline latency in the hot plate test were measured in the mice. The latter procedure involved placing the mouse on a heated surface (mouse cold/hot plate analgesia apparatus; Stoelting, Wood Dale, Ill.) at a setting of 55° C. Time until the mouse lifts or licks a paw was measured, whereupon the mouse was removed from the apparatus. […] After measurement of baseline temperature and hot plate latency, mice were administered vehicle or drug via oral gavage. […] Subsequently, the mice were placed on a 5.5 cm ring attached at a height of 16 cm to a ring stand, and the amount of time the animals remained motionless during a 5 min period was recorded. In addition, the number of times the mouse fell or jumped off the ring was recorded. If the mouse fell off the ring more than 5 times, the test was terminated.
Rectal temperature values were expressed as the difference between control temperature (before injection) and temperature following drug administration (Δ° C.). Antinociception was expressed as the percent maximum possible effect (MPE) using a 30-s maximum test latency as follows: [(test−control)/(30−control)]×100. During assessment for catalepsy, the total amount of time (in seconds) that the mouse remained motionless on the ring apparatus (except for breathing and whisker movement) was measured and was used as an indication of catalepsy-like behavior. This value was divided by 300 s and multiplied by 100 to obtain a percent immobility. If the mouse fell off the ring more than 5 times, the test was terminated and ring immobility data for the mouse were not included in analysis. Separate between-subjects ANOVAs were used to analyze each measure. Significant differences from control (vehicle) were further analyzed with Tukey post hoc tests (α=0.05) as necessary.

[3] = tested on: female CD-1 mice; assay: Mouse hot plate test for antinociception; type: in vivo
[4] = target: T1, hCB2 receptor; assay: biochemical
Description: as §1, §2

[5] = tested on: C57Bl mice, bleomycin induced skin fibrosis; assay: Bleomycin induced skin fibrosis mouse model of scleroderma; type: in vivo; settings: for inhibition of skin fibrosis: oral gavage 2.5, 5.0 and 10 mg/kg daily, bleomycin s.c. 14 days, sacrifice day 21
Procedure: Groups of 8 mice (6-12 week-old C57Bl) received daily s.c. injections of bleomycin (20 ug/mouse) or vehicle for 14 days, followed by one weeks of recovery. In parallel, starting day 1, ultrapure AJA suspended in 2% methylcellulose (MC) or vehicle was administered by oral gavage at 0, 2.5, 5.0 and 10 mg/kg. On day 21, mice were sacrificed. Their skin was harvested and processed for routine histology (H&E, trichrome and picrosirius red stains), immunohistology (paraffin-embedded or frozen samples), in situ hybridization, collagen (SIRCOL) assays, and RNA isolation for real-time qPCR or microarray hybridization. Skin sections were carefully characterized and quantified for dermal inflammation, dermal thickening, collagen accumulation (Trichrome), and collagen cross-linking (Sirius red) in lesional skin.

[6] = target: T1, hCB2 receptor; assay: CB receptor radioligand binding assay, human CB2; design: expressed in transfected cells; host or cells: HEK-293T
Procedure: Membrane preparation—HEK-293T cells were cultured according to ATCC (Manassas, Va.) guidelines and transfected with human CB1 cDNA (Genbank X54937) or CB2 cDNA (Genbank X74328), operably linked to the SV40 promoter, using Polyfect (Qiagen, Valencia, Calif.) or Fugene (Roche, Nutley, N.J.) according to manufacturer's instructions. 48 h after transfection, cells were harvested in ice cold membrane buffer (20 mM HEPES, 6 mM MgCl2, 1 mM EDTA, pH 7.2) using a cell scraper. Cells were transferred to a nitrogen cavitation chamber and a pressure of […] was applied for 30 min. The pressure was released and the cell debris was collected and centrifuged at 1000 g at 4° C. for 10 min. The supernatant was collected and the spin was repeated until the supernatant was free of precipitate. […] The membrane concentration was determined using a BioRad (Hercules, Calif.) protein assay dye reagent according to manufacturer's instructions. […]
Membranes were incubated for 2 hr at room temperature, then filtered onto a presoaked (with 0.1% polyethylenimine for 1 to 2 hr) 96 well GF/B filterplate (Packard Bioscience, Shelton, Conn.) and washed with […] ice cold wash buffer (25 mM HEPES, 1 mM CaCl2, 5 mM MgCl2, 0.25M NaCl) using a Filtermate 196 Harvester (Packard Instruments, Downers Grove, Ill.). […] Plates were counted on a Topcount NXT (Packard, Shelton, Conn.). […]

[7] = dose response 0.05 to 56 mg/kg oral

T1 sequence (P34972 whole entry): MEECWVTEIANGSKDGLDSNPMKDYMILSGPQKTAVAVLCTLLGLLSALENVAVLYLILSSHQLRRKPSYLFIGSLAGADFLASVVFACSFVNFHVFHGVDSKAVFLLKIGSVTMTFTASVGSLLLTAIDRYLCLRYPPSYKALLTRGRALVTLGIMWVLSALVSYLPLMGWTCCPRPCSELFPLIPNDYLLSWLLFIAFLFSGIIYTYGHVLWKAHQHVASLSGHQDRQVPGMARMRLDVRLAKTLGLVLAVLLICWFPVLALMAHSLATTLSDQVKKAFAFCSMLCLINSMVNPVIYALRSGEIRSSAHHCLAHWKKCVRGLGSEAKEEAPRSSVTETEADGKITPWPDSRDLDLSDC

Structure (SMILES): CCCCCCC(C)(C)c1cc(O)c2c(c1)OC(C)(C)[C@@H]1CC=C(C(=O)O)C[C@@H]21 [JBT-101, (6aR,10aR)-3-(1′,1′-dimethylheptyl)-Δ8-tetrahydro-cannabinol-9-carboxylic acid]
- potency in the GTP-gamma-S assay better in the CB2 assay than in the CB1 assay ([1]; FIG. 13): ~10 ×
- difference in potency for activation of CB2 versus CB1 receptors ([1]; GTP-γ-35S EC50 CB1 vs CB2): 9 fold
- doses required to see catalepsy compared with AJA (3a) from U.S. Pat. No. 5,338,753 [2, 7]: required much higher doses
- percent ring immobility in the catalepsy test ([2]; lower oral doses, up to 10 mg/kg): did not affect this measure
- percent ring immobility in the catalepsy test ([2]; oral 30 and 56 mg/kg, vs vehicle, p<0.05): significantly increased percent ring immobility
- doses at which active in the ring test ([2]; oral in oil, FIG. 14): ≥ 30 mg/kg
- doses required to see analgesia compared with AJA from U.S. Pat. No. 5,338,753 [3, 7]: required much higher doses
- antinociception in the hot plate test (% MPE) ([3]; oral 0.05-56 mg/kg, 90 min after administration, vs vehicle): None of the doses tested produced significant antinociception
- doses at which active in the mouse hot plate assay ([3]; oral, FIG. 15): ≥ 30 mg/kg
- EC50 ([4]; hCB2 EC50 Mean (±SEM), GTP-γ-35S turnover, mean of 4 repetitions): 1020 ± 92 nM
- EC50 ([4]; hCB2 EC50 Rep 1, GTP-γ-35S turnover, replicate 1): 930 nM
- EC50 ([4]; hCB2 EC50 Rep 2, GTP-γ-35S turnover, replicate 2): 815 nM
- EC50 ([4]; hCB2 EC50 Rep 3, GTP-γ-35S turnover, replicate 3): 1230 nM
- EC50 ([4]; hCB2 EC50 Rep 4, GTP-γ-35S turnover, replicate 4): 1100 nM
- inhibition of skin thickening ([5]; all oral doses, including 1 mg/kg (data not shown)): equally effective
- inhibition of skin fibrosis [5]: effective at inhibiting skin fibrosis
- inhibition of skin fibrosis ([5]; listed as ultrapure AJA): effective at all doses tested
- Ki [6]: 51 ± 11 nM
